The values below come from patent publication US7704995B2 (Exelixis, Inc., priority 2003, dated 2010).

One test has as its target T1, Chk1 (Homo sapiens, UniProt O14757).
T1 construct: purchased Upstate Biotechnology
T1 sequence (O14757 1-476): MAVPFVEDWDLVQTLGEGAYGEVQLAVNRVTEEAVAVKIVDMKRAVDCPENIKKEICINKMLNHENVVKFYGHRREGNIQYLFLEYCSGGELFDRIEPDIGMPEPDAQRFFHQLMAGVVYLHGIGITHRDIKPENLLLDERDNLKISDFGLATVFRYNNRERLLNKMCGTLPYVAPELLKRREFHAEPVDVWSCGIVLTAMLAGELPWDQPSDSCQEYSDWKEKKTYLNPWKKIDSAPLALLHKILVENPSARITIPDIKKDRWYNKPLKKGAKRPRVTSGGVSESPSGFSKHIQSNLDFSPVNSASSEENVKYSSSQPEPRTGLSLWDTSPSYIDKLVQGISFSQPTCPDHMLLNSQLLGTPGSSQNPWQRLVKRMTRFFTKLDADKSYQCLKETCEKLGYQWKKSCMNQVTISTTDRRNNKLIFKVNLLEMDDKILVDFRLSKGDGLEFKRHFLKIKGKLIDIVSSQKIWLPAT
In words: Chk1 kinase assay: incorporation of γ-33P ATP into immobilized myelin basic protein. The test is classed as biochemical. To be noted: Table 11, Chk1 only; class symbols A-D; read-out: Chk1 IC50. The gist of the method: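 MBP coated on plates (20 μg/ml) was phosphorylated by Chk1 (10 nM) or Chk2 (20 nM) with γ-33P ATP plus 10 μM (Chk1) or 30 μM (Chk2) unlabeled ATP, 1 h at room temperature, 1% DMSO. Bound radioactivity was counted by scintillation after washing; IC50 or Ki derived from fitted rate data.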
In the case of `COc1cc(CNC(=O)c2cccc(-c3cnc(N)c(C(=O)N[C@H]4CCCNC4)n3)c2)cc(OC)c1` [Example 1041, 3-amino-6-{3-[({[3,5-bis(methyloxy)phenyl]methyl}amino)carbonyl]phenyl}-N-[(3S)-piperidin-3-yl]pyrazine-2-carboxamide], the IC50 was under 0.05 µM.

`Nc1ncc(-c2cccc(CNC(=O)c3ccc(Br)cc3Cl)c2)nc1-c1nc([C@H]2CCCNC2)n[nH]1` [Example 945, N-{[3-(5-amino-6-{3-[(3S)-piperidin-3-yl]-1H-1,2,4-triazol-5-yl}pyrazin-2-yl)phenyl]methyl}-4-bromo-2-chlorobenzamide]: the IC50 is under 0.05 µM.

With `Nc1ncc(-c2cccc(C(=O)NCc3c(F)ccc(F)c3Cl)c2)nc1C(=O)N[C@H]1CCCNC1` [Example 1014, 3-amino-6-[3-({[(2-chloro-3,6-difluorophenyl)methyl]amino}carbonyl)phenyl]-N-[(3S)-piperidin-3-yl]pyrazine-2-carboxamide], the IC50 was under 0.05 µM.

As for `Nc1ncc(-c2cccc(C(=O)NCc3ccc(-c4csnn4)cc3)c2)nc1C(=O)N[C@H]1CCCNC1` [Example 963, 3-amino-N-[(3S)-piperidin-3-yl]-6-{3-[({[4-(1,2,3-thiadiazol-4-yl)phenyl]methyl}amino)carbonyl]phenyl}pyrazine-2-carboxamide], the IC50 is under 0.05 µM.

For the compound `Nc1ncc(-c2cccc(C(=O)NCc3c(F)cccc3F)c2)nc1C(=O)N[C@H]1CCCNC1` [Example 1010, 3-amino-6-[3-({[(2,6-difluorophenyl)methyl]amino}carbonyl)phenyl]-N-[(3S)-piperidin-3-yl]pyrazine-2-carboxamide], the IC50 was under 0.05 µM.

With `Nc1ncc(-c2cccc(NC(=O)Cc3cccc(F)c3)c2)nc1C(=O)N[C@H]1CCCNC1` [Example 979, 3-amino-6-(3-{[(3-fluorophenyl)acetyl]amino}phenyl)-N-[(3S)-piperidin-3-yl]pyrazine-2-carboxamide], the IC50 is under 0.05 µM.

As to `Nc1ncc(-c2cccc(CNC(=O)c3cc(F)cc(F)c3)c2)nc1-c1nc([C@H]2CCCNC2)n[nH]1` [Example 943, N-{[3-(5-amino-6-{3-[(3S)-piperidin-3-yl]-1H-1,2,4-triazol-5-yl}pyrazin-2-yl)phenyl]methyl}-3,5-difluorobenzamide], the IC50 was under 0.05 µM.

Turning to `Nc1ncc(-c2cccc(C(=O)NCc3ccc(F)c(F)c3)c2)nc1-c1nc([C@H]2CCCNC2)n[nH]1` [Example 867, 3-(5-amino-6-{3-[(3S)-piperidin-3-yl]-1H-1,2,4-triazol-5-yl}pyrazin-2-yl)-N-[(3,4-difluorophenyl)methyl]benzamide], the IC50 is under 0.05 µM.

The same test, now with this note: Table 11; Chk1 only; read-out: Chk1 IC50.
Regarding `CC(C)(C)OC(=O)N1CC[C@H](NC(=O)c2nc(-c3cccc(C(=O)NC4Cc5ccccc5C4)c3)cnc2N)C1` [Example 742, 1,1-dimethylethyl (3S)-3-{[(3-amino-6-{3-[(2,3-dihydro-1H-inden-2-ylamino)carbonyl]phenyl}pyrazin-2-yl)carbonyl]amino}pyrrolidine-1-carboxylate], the IC50 lay in the range of 0.05 to 1 µM.

For the compound `Nc1ncc(-c2cccc(C(=O)NCc3ccccc3)c2)nc1C(=O)NCCCNC(=O)c1ccco1` [Example 648, 3-amino-N-{3-[(furan-2-ylcarbonyl)amino]propyl}-6-(3-{[(phenylmethyl)amino]carbonyl}phenyl)pyrazine-2-carboxamide], the 50% inhibitory concentration (IC50) fell in the range of 1 to 10 µM.

Turning to `CNC(=O)c1nc(-c2cccc(CNc3ccc4ccccc4c3)c2)cnc1N` [Example 452, 3-amino-N-methyl-6-{3-[(naphthalen-2-ylamino)methyl]phenyl}pyrazine-2-carboxamide], the concentration for half-maximal inhibition (IC50) was in the range of 0.05 to 1 µM.

In the case of `C/C(=N\NC(=N)N)c1nc(-c2cccc(C(=O)NCc3ccccc3)c2)cnc1N` [Example 633, 3-(5-amino-6-{(1E)-N-[amino(imino)methyl]ethanehydrazonoyl}pyrazin-2-yl)-N-(phenylmethyl)benzamide], the IC50 is 1 to 10 µM.

`CNC(=O)c1nc(-c2cccc(CNC3CCc4cc(-c5ccsc5)ccc43)c2)cnc1N` (stereo not shown) [Example 481, 3-amino-N-methyl-6-[3-({[5-(3-thienyl)-2,3-dihydro-1H-inden-1-yl]amino}methyl)phenyl]pyrazine-2-carboxamide]: the IC50 was under 0.05 µM.

For `CNC(=O)c1nc(-c2cccc(CNC3CCc4c(Cl)cc(Cl)cc43)c2)cnc1N` (stereo not shown) [Example 486, 3-amino-6-(3-{[(4,6-dichloro-2,3-dihydro-1H-inden-1-yl)amino]methyl}phenyl)-N-methylpyrazine-2-carboxamide], the IC50 was 0.05 to 1 µM.

For the compound `CNC(=O)c1nc(-c2cccc(CNC3CC(=O)c4ccccc43)c2)cnc1N` (stereo not shown) [Example 471, 3-amino-N-methyl-6-(3-{[(3-oxo-2,3-dihydro-1H-inden-1-yl)amino]methyl}phenyl)pyrazine-2-carboxamide], the IC50 was in the range of 0.05 to 1 µM.

In the case of `Nc1ncc(-c2cccc(C(=O)N[C@H]3CCc4ccccc43)c2)nc1C(=O)NC1CCCNCC1` (stereo partly drawn) [Example 768, 3-amino-N-azepan-4-yl-6-(3-{[(1S)-2,3-dihydro-1H-inden-1-ylamino]carbonyl}phenyl)pyrazine-2-carboxamide], the IC50 lay in the range of 0.05 to 1 µM.

Consider `CCN1CC[C@H](NC(=O)c2nc(-c3cccc(C(=O)N[C@H]4c5ccccc5C[C@H]4O)c3)cnc2N)C1` [Example 727, 3-amino-N-[(3S)-1-ethylpyrrolidin-3-yl]-6-[3-({[(1S,2R)-2-hydroxy-2,3-dihydro-1H-inden-1-yl]amino}carbonyl)phenyl]pyrazine-2-carboxamide], for which the IC50 lay within 1 to 10 µM.

Consider `CNC(=O)c1nc(-c2cccc(CN[C@H]3CCc4c(F)cccc43)c2)cnc1N` [Example 482, 3-amino-6-[3-({[(1S)-4-fluoro-2,3-dihydro-1H-inden-1-yl]amino}methyl)phenyl]-N-methylpyrazine-2-carboxamide], for which the IC50 was under 0.05 µM.

As to `CNC(=O)c1nc(-c2cccc(CN[C@H]3c4ccccc4C[C@H]3O)c2)cnc1N` [Example 453, 3-amino-6-[3-({[(1S,2R)-2-hydroxy-2,3-dihydro-1H-inden-1-yl]amino}methyl)phenyl]-N-methylpyrazine-2-carboxamide], the IC50 was under 0.05 µM.

Staying with this test, now noted: read-out: Chk1 IC50.
In the case of `CNC(=O)c1nc(-c2cccc(OCCN3CCC(Cc4ccccc4)CC3)c2)cnc1N` [Example 187, 3-amino-N-methyl-6-[3-({2-[4-(phenylmethyl)piperidin-1-yl]ethyl}oxy)phenyl]pyrazine-2-carboxamide], the IC50 lay in the range of 0.05 to 1 µM.

As for `CNC(=O)c1nc(-c2cccc(C(=O)O)c2)cnc1N` [Example 92, 3-{5-amino-6-[(methylamino)carbonyl]pyrazin-2-yl}benzoic acid], the IC50 was at least 10 µM.

Regarding `CNC(=O)c1nc(-c2cccc(C(=O)NCc3ccc(F)cc3)c2)cnc1N` [Example 103, 3-amino-6-[3-({[(4-fluorophenyl)methyl]amino}carbonyl)phenyl]-N-methylpyrazine-2-carboxamide], the IC50 is 0.05 to 1 µM.

As for `CNC(=O)c1nc(-c2cccc(C(=O)NCC3CCCN3Cc3ccccc3)c2)cnc1N` (stereo not shown) [Example 385, 3-amino-N-methyl-6-{3-[({[1-(phenylmethyl)pyrrolidin-2-yl]methyl}amino)carbonyl]phenyl}pyrazine-2-carboxamide], the 50% inhibitory concentration (IC50) was 0.05 to 1 µM.

For `CNC(=O)c1nc(-c2noc(C(C)(C)C)n2)cnc1N` [Example 74, 3-amino-6-[5-(1,1-dimethylethyl)-1,2,4-oxadiazol-3-yl]-N-methylpyrazine-2-carboxamide], the IC50 is at least 10 µM.

For the compound `CNC(=O)c1nc(-c2cccc(CNCc3cc(Cl)cc(Cl)c3)c2)cnc1N` [Example 409, 3-amino-6-[3-({[(3,5-dichlorophenyl)methyl]amino}methyl)phenyl]-N-methylpyrazine-2-carboxamide], the IC50 is under 0.05 µM.

For `CNC(=O)c1nc(-c2cccc(C(=O)NCc3cc(Cl)ccc3C)c2)cnc1N` [Example 213, 3-amino-6-[3-({[(5-chloro-2-methylphenyl)methyl]amino}carbonyl)phenyl]-N-methylpyrazine-2-carboxamide], the IC50 lay within 0.05 to 1 µM.

Turning to `CNC(=O)c1nc(-c2cccc(C(=O)NCc3ccccc3N3CCCCC3)c2)cnc1N` [Example 355, 3-amino-N-methyl-6-[3-({[(2-piperidin-1-ylphenyl)methyl]amino}carbonyl)phenyl]pyrazine-2-carboxamide], the IC50 lay within 0.05 to 1 µM.

On to `CNC(=O)c1nc(-c2ccc(OC)c(OC)c2)cnc1N` [Example 80, 3-amino-6-[3,4-bis(methyloxy)phenyl]-N-methylpyrazine-2-carboxamide], for which the IC50 was 1 to 10 µM.

On to `CNC(=O)c1nc(-c2cccc(NC(=O)C3CCCC3)c2)cnc1N` [Example 166, 3-amino-6-{3-[(cyclopentylcarbonyl)amino]phenyl}-N-methylpyrazine-2-carboxamide], for which the IC50 was in the range of 0.05 to 1 µM.

With `CNC(=O)c1nc(-c2cccc(C(=O)NCCc3cc(OC)cc(OC)c3)c2)cnc1N` [Example 173, 3-amino-6-{3-[({2-[3,5-bis(methyloxy)phenyl]ethyl}amino)carbonyl]phenyl}-N-methylpyrazine-2-carboxamide], the IC50 lay within 1 to 10 µM.

Turning to `CNC(=O)c1nc(-c2ccc(C(C)=O)cc2)cnc1N` [Example 79, 6-(4-acetylphenyl)-3-amino-N-methylpyrazine-2-carboxamide], the IC50 was in the range of 1 to 10 µM.
